These results are taken from US20210355121A1, “FUSED TRICYCLIC KRAS INHIBITORS” (Incyte Corporation, priority 2020, published 2021).

Each structure is given as a SMILES string. A value given as a limit tells only on which side of the number the result lay.

One assay has as its target KRAS G12D (Homo sapiens, UniProt P01116, G12D). In words: KRAS G12D GDP-GTP exchange assay (bodipy-GDP for GppNHp, with SOS1). Conditions: 2.5 nM bodipy loaded KRAS G12D, 4 hours after GppNHp-SOS1; read-out: G12D_exchange (KRAS_G12D exchange assay IC50). In kind it is biochemical. As to the method: (§1) The inhibitor potency of the exemplified compounds was determined in a fluorescence based guanine nucleotide exchange assay, which measures the exchange of bodipy-GDP (fluorescently labeled GDP) for GppNHp (Non-hydrolyzable GTP analog) to generate the active state of KRAS in the presence of SOS1 (guanine nucleotide exchange factor). Inhibitors were serially diluted in DMSO and a volume of 0.1 μL was transferred to the wells of a black low volume 384-well plate. 5 μL/well volume of bodipy-loaded KRAS G12C diluted to 5 nM in assay buffer (25 mM Hepes pH 7.5, 50 mM NaCl, 10 mM MgCl2 and 0.01% Brij-35) was added to the plate and pre-incubated with inhibitor for 2 hours at ambient temperature. Appropriate controls (enzyme with no inhibitor or with a G12C inhibitor (AMG-510)) were included on the plate. The exchange was initiated by the addition of a 5 μL/well volume containing 1 mM GppNHp and 300 nM SOS1 in assay buffer. The 10 μL/well reaction concentration of the bodipy-loaded KRAS G12C, GppNHp, and SOS1 were 2.5 nM, 500 uM, and 150 nM, respectively. The reaction plates were incubated at ambient temperature for 2 hours, a time estimated for complete GDP-GTP exchange in the absence of inhibitor. For the KRAS G12D and G12V mutants, similar guanine nucleotide exchange assays were used with 2.5 nM as final concentration for the bodipy loaded KRAS proteins and with 4 hours and 3 hours incubation after adding GppNHp-SOS1 mixture for G12D and G12V respectively. A cyclic peptide described to selectively bind G12D mutant (Sakamoto et al., BBRC 484.3 (2017), 605-611) or internal compounds with confirmed binding were used as positive controls in the assay plates. Fluorescence intensities were measured on a PheraStar plate reader instrument (BMG Labtech) with excitation at 485 nm and emission at 520 nm.
(§2) Either GraphPad prism or XLfit was used to analyze the data. The IC50 values were derived by fitting the data to a four parameter logistic equation producing a sigmoidal dose-response curve with a variable Hill coefficient. Prism equation: Y=Bottom+(Top−Bottom)/(1+10^((Log IC50−X)*Hill slope)); XLfit equation: Y=(A+((B−A)/(1+((X/C)^D)))) where X is the logarithm of inhibitor concentration and Y is the response.

The target of a further assay is KRAS G12V (Homo sapiens, UniProt P01116, G12V). As to the kind of experiment: KRAS G12V GDP-GTP exchange assay (bodipy-GDP for GppNHp, with SOS1). In kind it is biochemical. Conditions: 2.5 nM bodipy loaded KRAS G12V, 3 hours after GppNHp-SOS1; read-out: G12V_exchange (KRAS_G12V exchange assay IC50). The method, then:
as §1, §2

Chain of KRAS G12V (P01116 1-188 isoform P01116-2 G12V): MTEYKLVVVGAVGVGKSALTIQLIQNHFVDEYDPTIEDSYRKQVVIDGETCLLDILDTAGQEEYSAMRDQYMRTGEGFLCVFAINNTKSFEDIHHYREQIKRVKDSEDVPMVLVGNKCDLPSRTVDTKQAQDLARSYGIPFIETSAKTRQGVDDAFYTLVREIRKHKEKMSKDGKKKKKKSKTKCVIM
Chain of KRAS G12D (P01116 1-188 isoform P01116-2 G12D): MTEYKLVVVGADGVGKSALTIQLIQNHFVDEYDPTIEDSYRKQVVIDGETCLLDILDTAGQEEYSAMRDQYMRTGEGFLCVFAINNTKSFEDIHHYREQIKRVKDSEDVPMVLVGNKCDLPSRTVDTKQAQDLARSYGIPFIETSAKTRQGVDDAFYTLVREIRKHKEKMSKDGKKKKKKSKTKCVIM

Regarding `CN1CCC[C@H]1COc1nc2c(F)c(-c3cc(O)cc4ccccc34)c(CCC#N)cc2c2c1cc(Cc1ccccc1)n2C1C2CNC1C2` (stereo partly drawn) [Example 40, 3-(2-benzyl-1-(2-azabicyclo[2.1.1]hexan-5-yl)-6-fluoro-7-(3-hydroxynaphthalen-1-yl)-4-(((S)-1-methylpyrrolidin-2-yl)methoxy)-1H-pyrrolo[3,2-c]quinolin-8-yl)propanenitrile], the 50% inhibitory concentration (IC50) (usually the concentration needed to halve the response being measured) on KRAS G12D was in the range of 100 to 1000 nM; at KRAS G12V, 1000 to 5000 nM.

For `CN(C)C(=O)CCc1cc2c(OC[C@@H]3CCCN3C)nc3c(F)c(-c4cc(O)cc5ccccc45)c(CCC#N)cc3c2n1C1C2CNC1C2` (stereo partly drawn) [Example 30, 3-(1-(2-azabicyclo[2.1.1]hexan-5-yl)-8-(2-cyanoethyl)-6-fluoro-7-(3-hydroxynaphthalen-1-yl)-4-(((S)-1-methylpyrrolidin-2-yl)methoxy)-1H-pyrrolo[3,2-c]quinolin-2-yl)-N,N-dimethylpropanamide], the concentration for half-maximal inhibition (IC50) on KRAS G12D and at KRAS G12V was at most 100 nM each time.

Regarding `Cc1ncc(-c2cn(C3C4CNC3C4)c3c2c(OC[C@@H]2CCCN2C)nc2c(F)c(-c4cc(O)cc5ccccc45)c(CCC#N)cc23)s1` (stereo partly drawn) [Example 37, 3-(1-(2-azabicyclo[2.1.1]hexan-5-yl)-6-fluoro-7-(3-hydroxynaphthalen-1-yl)-4-(((S)-1-methylpyrrolidin-2-yl)methoxy)-3-(2-methylthiazol-5-yl)-1H-pyrrolo[3,2-c]quinolin-8-yl)propanenitrile], the half-inhibitory concentration (IC50) is at most 100 nM on KRAS G12D and 100 to 1000 nM at KRAS G12V.

For the molecule `CN1CCC[C@H]1COc1nc2c(F)c(-c3cc(O)cc4ccccc34)c(CCC#N)cc2c2c1c(C(=O)NCCO)cn2C1C2CNC1C2` (stereo partly drawn) [Example 44, 1-(2-azabicyclo[2.1.1]hexan-5-yl)-8-(2-cyanoethyl)-6-fluoro-N-(2-hydroxyethyl)-7-(3-hydroxynaphthalen-1-yl)-4-(((S)-1-methylpyrrolidin-2-yl)methoxy)-1H-pyrrolo[3,2-c]quinoline-3-carboxamide], the concentration for half-maximal inhibition (IC50) is at most 100 nM on KRAS G12D and 100 to 1000 nM on KRAS G12V.

For `COC(=O)CCc1c(N2CC(N(C)C)C2)c2c(OC)nc3c(F)c(-c4cc(O)cc5ccccc45)c(CCC#N)cc3c2n1[C@H]1[C@H]2CN[C@@H]1C2` [Example 49, methyl 3-(1-((1R,4R,5S)-2-azabicyclo[2.1.1]hexan-5-yl)-8-(2-cyanoethyl)-3-(3-(dimethylamino)azetidin-1-yl)-6-fluoro-7-(3-hydroxynaphthalen-1-yl)-4-methoxy-1H-pyrrolo[3,2-c]quinolin-2-yl)propanoate], the half-maximal inhibitory concentration (IC50) on KRAS G12D and on KRAS G12V was 100 to 1000 nM in each case.

As for `CN1CCC[C@H]1COc1nc2c(F)c(-c3cc(O)cc4ccccc34)c(CCC#N)cc2c2c1c(-c1ccc(=O)[nH]c1)cn2C1C2CNC1C2` (stereo partly drawn) [Example 42, 3-(1-(2-azabicyclo[2.1.1]hexan-5-yl)-6-fluoro-7-(3-hydroxynaphthalen-1-yl)-4-(((S)-1-methylpyrrolidin-2-yl)methoxy)-3-(6-oxo-1,6-dihydropyridin-3-yl)-1H-pyrrolo[3,2-c]quinolin-8-yl)propanenitrile], the figures for the half-maximal inhibitory concentration (IC50) on KRAS G12D and at KRAS G12V were at most 100 nM and 100 to 1000 nM, respectively.

Take `CN1CCC[C@H]1COc1nc2c(F)c(-c3cc(O)cc4ccccc34)c(CCC#N)cc2c2c1c(-c1cnn(C)c1)cn2C1C2CNC1C2` (stereo partly drawn) [Example 38, 3-(1-(2-azabicyclo[2.1.1]hexan-5-yl)-6-fluoro-7-(3-hydroxynaphthalen-1-yl)-3-(1-methyl-1H-pyrazol-4-yl)-4-(((S)-1-methylpyrrolidin-2-yl)methoxy)-1H-pyrrolo[3,2-c]quinolin-8-yl)propanenitrile]: the IC50 on KRAS G12D was at most 100 nM; at KRAS G12V, 100 to 1000 nM.

As to `COC(=O)CCc1cc2c(OC[C@@H]3CCCN3C)nc3c(F)c(-c4cc(O)cc5ccccc45)c(CCC#N)cc3c2n1C1C2CNC1C2` (single isomer, unassigned) [Example 29], the IC50 at KRAS G12D and at KRAS G12V was at most 100 nM each time.

With `CN1CCC[C@H]1COc1nc2c(F)c(-c3cc(O)cc4ccccc34)c(CCC#N)cc2c2c1cc(-c1ccn(C)n1)n2C1C2CNC1C2` (stereo partly drawn) [Example 39, 3-(1-(2-azabicyclo[2.1.1]hexan-5-yl)-6-fluoro-7-(3-hydroxynaphthalen-1-yl)-2-(1-methyl-1H-pyrazol-3-yl)-4-(((S)-1-methylpyrrolidin-2-yl)methoxy)-1H-pyrrolo[3,2-c]quinolin-8-yl)propanenitrile], the 50% inhibitory concentration (IC50) on KRAS G12D and at KRAS G12V was at most 100 nM each time.

For `CN1CCC[C@H]1COc1nc2c(F)c(-c3cc(O)cc4ccccc34)c(CCC#N)cc2c2c1c(CO)cn2C1C2CNC1C2` (stereo partly drawn) [Example 46, 3-(1-(2-Azabicyclo[2.1.1]hexan-5-yl)-6-fluoro-3-(hydroxymethyl)-7-(3-hydroxynaphthalen-1-yl)-4-(((S)-1-methylpyrrolidin-2-yl)methoxy)-1H-pyrrolo[3,2-c]quinolin-8-yl)propanenitrile], the concentration for half-maximal inhibition (IC50) on KRAS G12D is at most 100 nM; at KRAS G12V it was 100 to 1000 nM.

Take `CN1CCC[C@H]1COc1nc2c(F)c(-c3cc(O)cc4ccccc34)c(CCC#N)cc2c2c1c(Cl)cn2C1C2CNC1C2` (stereo partly drawn) [Example 43, 3-(1-(2-azabicyclo[2.1.1]hexan-5-yl)-3-chloro-6-fluoro-7-(3-hydroxynaphthalen-1-yl)-4-(((S)-1-methylpyrrolidin-2-yl)methoxy)-1H-pyrrolo[3,2-c]quinolin-8-yl)propanenitrile]: the IC50 at KRAS G12D was at most 100 nM; on KRAS G12V it was 100 to 1000 nM.

Consider `CN1CCC[C@H]1COc1nc2c(F)c(-c3cc(O)cc4ccccc34)c(CCC#N)cc2c2c1c(-c1cccnc1)cn2C1C2CNC1C2` (stereo partly drawn) [Example 35, 3-(1-(2-azabicyclo[2.1.1]hexan-5-yl)-6-fluoro-7-(3-hydroxynaphthalen-1-yl)-4-(((S)-1-methylpyrrolidin-2-yl)methoxy)-3-(pyridin-3-yl)-1H-pyrrolo[3,2-c]quinolin-8-yl)propanenitrile], for which the results for the IC50 at KRAS G12D and at KRAS G12V were at most 100 nM and 100 to 1000 nM, respectively.

In the case of `CN1CCC[C@H]1COc1nc2c(F)c(-c3cc(O)cc4ccccc34)c(CCC#N)cc2c2c1c(-c1ccccc1)cn2C1C2CNC1C2` (stereo partly drawn) [Example 34, 3-(1-(2-azabicyclo[2.1.1]hexan-5-yl)-6-fluoro-7-(3-hydroxynaphthalen-1-yl)-4-(((S)-1-methylpyrrolidin-2-yl)methoxy)-3-phenyl-1H-pyrrolo[3,2-c]quinolin-8-yl)propanenitrile], the IC50 on KRAS G12D fell in the range of 100 to 1000 nM; on KRAS G12V, 1000 to 5000 nM.

Take `CN1CCC[C@H]1COc1nc2c(F)c(-c3cccc4ccc(F)cc34)c(CCC#N)cc2c2c1cc(CCC(=O)N1CCC1)n2C1C2CNC1C2` (stereo partly drawn) [Example 50, 3-(2-(3-(azetidin-1-yl)-3-oxopropyl)-1-(2-azabicyclo[2.1.1]hexan-5-yl)-6-fluoro-7-(7-fluoronaphthalen-1-yl)-4-(((S)-1-methylpyrrolidin-2-yl)methoxy)-1H-pyrrolo[3,2-c]quinolin-8-yl)propanenitrile]: the IC50 at KRAS G12D and on KRAS G12V was at most 100 nM each time.

With `CN1CCC[C@H]1COc1nc2c(F)c(-c3cc(O)cc4ccccc34)c(CCC#N)cc2c2c1cc(-c1cnn(C)c1)n2C1C2CNC1C2` (stereo partly drawn) [Example 32, 3-(1-(2-azabicyclo[2.1.1]hexan-5-y1)-6-fluoro-7-(3-hydroxynaphthalen-1-y1)-2-(1-methyl-1H-pyrazol-4-y1)-4-(((S)-1-methylpyrrolidin-2-yl)methoxy)-1H-pyrrolo[3,2-c]quinolin-8-yl)propanenitrile], the 50% inhibitory concentration (IC50) on KRAS G12D and at KRAS G12V was at most 100 nM throughout.

For the molecule `Cc1ncc(-c2cn(C3C4CNC3C4)c3c2c(OC[C@@H]2CCCN2C)nc2c(F)c(-c4cc(O)cc5ccccc45)c(CCC#N)cc23)o1` (stereo partly drawn) [Example 36, 3-(1-(2-azabicyclo[2.1.1]hexan-5-yl)-6-fluoro-7-(3-hydroxynaphthalen-1-yl)-3-(2-methyloxazol-5-yl)-4-(((S)-1-methylpyrrolidin-2-yl)methoxy)-1H-pyrrolo[3,2-c]quinolin-8-yl)propanenitrile], the 50% inhibitory concentration (IC50) on KRAS G12D was at most 100 nM; at KRAS G12V it was 100 to 1000 nM.

`CCCc1cc2c(OC[C@@H]3CCCN3C)nc3c(F)c(-c4cc(O)cc5ccccc45)c(CCC#N)cc3c2n1C1C2CNC1C2` (stereo partly drawn) [Example 31, 3-(1-(2-azabicyclo[2.1.1]hexan-5-yl)-6-fluoro-7-(3-hydroxynaphthalen-1-yl)-4-(((S)-1-methylpyrrolidin-2-yl)methoxy)-2-propyl-1H-pyrrolo[3,2-c]quinolin-8-yl)propanenitrile]: the concentration for half-maximal inhibition (IC50) at KRAS G12D and at KRAS G12V was at most 100 nM throughout.
